Laboratory results reported in PMC11524583, “Neurons enhance blood–brain barrier function via upregulating claudin-5 and VE-cadherin expression due to glial cell line-derived neurotrophic factor secretion” (eLife, 2024).
Read-outs that look alike come from different tables or passages of the source. Marks after values point to notes of the source that are not given here.

What was measured:
[1] = test system: hCMEC/D3 mono-culture BBB model; details: human
in vitro [2] = details: human
in vitro [3] = details: human; remark: listed apart in the source
[4] = unbound fraction in brain, cited from earlier work
[5] = in situ brain perfusion in rodents; published permeability multiplied by VSA 150 cm^2/g; ref Summerfield et al., 2007; cited from earlier work
[6] = test system: triple co-culture BBB model (hCMEC/D3, U251 and SH-SY5Y cells); test: In vitro BBB permeability study (Papp), triple co-culture BBB model; details: Triple co-culture BBB model; PS worked out from mean Papp
[7] = test system: hCMEC/D3 mono-culture BBB model; test: In vitro BBB permeability study (Papp), hCMEC/D3 mono-culture BBB model; details: Mono-culture BBB Model; PS worked out from mean Papp
[8] = Papp, Triple, apical to basolateral, 30 min, 37°C, day 6, mean ± SEM, four biological replicates

Row | Structure (SMILES) | PSPre, Mono [1] | fu, brain ([4]; ref Summerfield et al., 2007) | Papp A→B (in vitro [3]; [8]) | PSObs [5] | PS [6] | PS [7] | also measured
1 | CC(NC(C)(C)C)C(=O)c1cccc(Cl)c1 (stereo not shown) [Bupropion] | 1139.58 µL/min/g | – | – | – | – | – | Papp A→B at 30 min (in vitro [2]; Papp, Mono): 15.2 ± 0.2 ×10⁻⁶ cm/s; Papp A→B at 30 min (in vitro [3]; Papp, Triple): 11.3 ± 0.44 ×10⁻⁶ cm/s; fu, brain ([4]; ref Bhattacharya et al., 2021): 0.12^§
2 | CNCCC(Oc1ccc(C(F)(F)F)cc1)c1ccccc1 (stereo not shown) [Fluoxetine] | – | 0.004^† | – | – | – | – | fu, brain ([4]; ref Liu et al., 2005): 0.00094; fu, brain ([4]; ref Maurer et al., 2005): 0.0023
3 | NCC1(CC(=O)O)CCCCC1 [Gabapentin] | 192.77 µL/min/g | 0.782^† | 8.78 ± 0.23 ×10⁻⁶ cm/s | 162.90^† μl/min/g | 101.05 µL/min/g | 192.77 µL/min/g | Papp A→B (in vitro [2]; Papp Mean, Mono-culture BBB Model, mean of 4 replicates): 16.7 ×10⁻⁶ cm/s
4 | Nc1nnc(-c2cccc(Cl)c2Cl)c(N)n1 [Lamotrigine] | – | 0.273^† | – | – | – | – | –
5 | Cc1ncc2n1-c1ccc(Cl)cc1C(c1ccccc1F)=NC2 [Midazolam] | 5060.00 µL/min/g | – | 19.1 ± 0.24 ×10⁻⁶ cm/s | 2727.00^† μl/min/g | 3818.00 µL/min/g | 5060.00 µL/min/g | Papp A→B (in vitro [2]; Papp, Mono, apical to basolateral, 30 min, 37°C, day 6, mean ± SEM, four biological replicates): 25.3 ± 1 ×10⁻⁶ cm/s; Papp A→B (in vitro [3]; Papp Mean, Triple co-culture BBB model, mean of 4 replicates): 19.1 ×10⁻⁶ cm/s; fu, brain ([4]; ref Kodaira et al., 2011): 0.045^‡ ‡
6 | Cc1cc2c(s1)Nc1ccccc1N=C2N1CCN(C)CC1 [Olanzapine] | – | 0.034^† | – | 2279.70^† μl/min/g | – | – | –
